Test results taken from PubChem BioAssay AID248 (DTP/NCI, 2004).
Several values for one entry are separate records, joined by “and”; a condition that tells them apart may be missing. Identical values can stand only once. Inconclusive results and toxic doses are left out. No stated cut-off is given here; in the data, active means T/C of 150% or more; inactive means T/C below 125%.

System: L1210 leukemia ip in BDF1 mice, survival T/C
Experiment: NCI In Vivo Anticancer Drug Screen. Data for tumor model L1210 Leukemia (intraperitoneal) in B6D2F1 (BDF1) mice
Conditions: endpoint: mean survival time, higher = longer survival
Method in brief: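 Read-out is survival time, reported as the treated-group measurement over the vehicle-control measurement.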

[1] = dose: 100.0 mg/kg/injection, schedule: Q01DX001 (ip), vehicle: saline with Tween-80
[2] = dose: 200.0 mg/kg/injection, schedule: Q01DX001 (ip), vehicle: saline with Tween-80
[3] = dose: 100.0 mg/kg/injection, schedule: Q01DX001 (ip), vehicle: carboxymethylcellulose (CMC)
[4] = dose: 200.0 mg/kg/injection, schedule: Q01DX001 (ip), vehicle: carboxymethylcellulose (CMC)
[5] = dose: 400.0 mg/kg/injection, schedule: Q01DX001 (ip), vehicle: carboxymethylcellulose (CMC)
[6] = dose: 100.0 mg/kg/injection, schedule: Q04DX003 (ip), vehicle: Klucel (hydroxypropylcellulose) (HPC)
[7] = dose: 200.0 mg/kg/injection, schedule: Q04DX003 (ip), vehicle: Klucel (hydroxypropylcellulose) (HPC)
[8] = dose: 400.0 mg/kg/injection, schedule: Q04DX003 (ip), vehicle: Klucel (hydroxypropylcellulose) (HPC)
[9] = dose: 75.0 mg/kg/injection, schedule: Q01DX001 (ip), vehicle: saline
[10] = dose: 150.0 mg/kg/injection, schedule: Q01DX001 (ip), vehicle: saline
[11] = dose: 50.0 mg/kg/injection, schedule: Q01DX001 (ip), vehicle: saline
[12] = dose: 50.0 mg/kg/injection, schedule: Q04DX003 (ip), vehicle: saline
[13] = dose: 100.0 mg/kg/injection, schedule: Q01DX001 (ip), vehicle: saline
[14] = dose: 200.0 mg/kg/injection, schedule: Q01DX001 (ip), vehicle: saline
[15] = dose: 100.0 mg/kg/injection, schedule: Q04DX003 (ip), vehicle: saline with Tween-80
[16] = dose: 200.0 mg/kg/injection, schedule: Q04DX003 (ip), vehicle: saline with Tween-80
[17] = dose: 400.0 mg/kg/injection, schedule: Q04DX003 (ip), vehicle: saline with Tween-80
[18] = dose: 100.0 mg/kg/injection, schedule: Q01DX001 (ip), vehicle: Klucel (hydroxypropylcellulose) (HPC)
[19] = dose: 200.0 mg/kg/injection, schedule: Q01DX001 (ip), vehicle: Klucel (hydroxypropylcellulose) (HPC)
[20] = dose: 400.0 mg/kg/injection, schedule: Q01DX001 (ip), vehicle: Klucel (hydroxypropylcellulose) (HPC)
[21] = dose: 100.0 mg/kg/injection, schedule: Q01DX009 (ip), vehicle: Klucel (hydroxypropylcellulose) (HPC)
[22] = dose: 200.0 mg/kg/injection, schedule: Q01DX009 (ip), vehicle: Klucel (hydroxypropylcellulose) (HPC)
[23] = dose: 400.0 mg/kg/injection, schedule: Q01DX009 (ip), vehicle: Klucel (hydroxypropylcellulose) (HPC)
[24] = dose: 100.0 mg/kg/injection, schedule: Q04DX002 (ip), vehicle: Klucel (hydroxypropylcellulose) (HPC)
[25] = dose: 200.0 mg/kg/injection, schedule: Q04DX002 (ip), vehicle: Klucel (hydroxypropylcellulose) (HPC)
[26] = dose: 400.0 mg/kg/injection, schedule: Q04DX002 (ip), vehicle: Klucel (hydroxypropylcellulose) (HPC)

Measured: T/C

O=[N+]([O-])c1cccc(OCCCOc2ccc(S(=O)(=O)F)cc2)c1
inactive: [1] 96 % of control | [2] 98 % of control | dose: 400.0 mg/kg/injection, schedule: Q01DX001 (ip), vehicle: saline with Tween-80 90 % of control

CC1(C(=O)O)NCCS1 (stereo not drawn)
inactive: [3] 95 % of control | [4] 90 % of control | [5] 90 % of control

O=C(NNc1ccc([N+](=O)[O-])cc1)c1ccccc1
inactive: [6] 94 % of control | [7] 94 % of control | [8] 100 % of control

CCCCCC(=O)NC1CCCCC1
inactive: [9] 89 % of control | [10] 89 % of control

CCCCN(C)c1ncnc2[nH]ncc12
inactive: [11] 104 % of control | dose: 50.0 mg/kg/injection, schedule: Q01DX009 (ip), vehicle: saline 116 % of control | [12] 106 % of control | [13] 106 % of control | dose: 100.0 mg/kg/injection, schedule: Q04DX003 (ip), vehicle: saline 110 % of control | [14] 104 % of control | dose: 200.0 mg/kg/injection, schedule: Q04DX003 (ip), vehicle: saline 100 % of control

Cc1ccc(C(C)(CCC(=O)O)c2ccc(C)o2)o1
inactive: [15] 96 % of control | [16] 96 % of control | [17] 95 % of control

COc1ccccc1C1CCCCC1OS(C)(=O)=O (stereo not drawn)
inactive: [3] 103 % of control | [4] 111 % of control | [5] 92 % of control

NC(=O)Nc1ccc(C(=O)O)cc1
inactive: [18] 95 % of control | [6] 100 % of control | [19] 91 % of control | [7] 97 % of control | [20] 98 % of control | [8] 98 % of control

CCOC(=O)C1C(=O)C(C(=O)Nc2ccccc2)C(=O)C(C(=O)OCC)C1c1ccc(OC(C)=O)cc1 (stereo not drawn)
inactive: dose: 50.0 mg/kg/injection, schedule: Q01DX001 (ip), vehicle: saline with Tween-80 94 % of control | [1] 100 % of control | [2] 96 % of control

CC(=O)c1cccc(NC(=O)Nc2cccc(F)c2)c1
inactive: [21] 103 % of control | [22] 97 % of control | [23] 110 % of control

O=S1(=O)CC23CCC2(COC3)C1 (stereo not drawn)
inactive: dose: 12.5 mg/kg/injection, schedule: Q04DX003 (ip), vehicle: saline 97 % of control | dose: 25.0 mg/kg/injection, schedule: Q04DX003 (ip), vehicle: saline 94 % of control | [12] 92 % of control

CN1CN(c2ccccc2)C2(CCN(C3(c4ccccc4)CCCCC3)CC2)C1=O
inactive: [11] 102 % of control | [13] 92 % of control | [14] 94 % of control

CCOC(=O)c1ccc(NC(=O)Nc2ccccc2C(=O)OC)cc1
inactive: [21] 110 % of control | [22] 100 % of control | [23] 94 % of control

O/N=C\CC/C=N\O
inactive: [6] 105 % of control | [7] 98 % of control | [8] 100 % of control

CC12CCC(O)CC1=CCC1C2CCC2(C)C1CC1=CC(C#N)C(=O)NC12O (stereo not drawn)
inactive: dose: 100.0 mg/kg/injection, schedule: Q04DX003 (sc), vehicle: Klucel (hydroxypropylcellulose) (HPC) 100 % of control | dose: 200.0 mg/kg/injection, schedule: Q04DX003 (sc), vehicle: Klucel (hydroxypropylcellulose) (HPC) 103 % of control | dose: 400.0 mg/kg/injection, schedule: Q04DX003 (sc), vehicle: Klucel (hydroxypropylcellulose) (HPC) 99 % of control

Nc1nc(-c2ccccc2)cc(=O)[nH]1
inactive: [21] 88 % of control | [22] 97 % of control | [23] 93 % of control

CC(C)CCN1C(c2ccccc2)=CN(Cc2ccccc2)C=C1c1ccccc1
inactive: [24] 100 % of control | [25] 92 % of control | [26] 95 % of control

O=C(CNC(=O)C1CCCN1Sc1ccc([N+](=O)[O-])cc1[N+](=O)[O-])NCC(=O)OCc1ccccc1 (stereo not drawn)
inactive: [18] 98 % of control | [19] 103 % of control | [20] 98 % of control

OC1C(Br)CC(Br)C1O (stereo not drawn)
inactive: dose: 100.0 mg/kg/injection, schedule: Q04DX002 (ip), vehicle: saline with Tween-80 97 % of control | dose: 200.0 mg/kg/injection, schedule: Q04DX002 (ip), vehicle: saline with Tween-80 93 % of control | dose: 400.0 mg/kg/injection, schedule: Q04DX002 (ip), vehicle: saline with Tween-80 101 % of control

CN(C)C=Nc1ccc(Cl)c2ccccc12
inactive: [18] 99 % of control | [6] 98 % of control | [19] 96 % of control | [7] 101 % of control | [20] 97 % of control

COc1ccc(C(=S)N(C)c2ccccc2)cc1
inactive: dose: 100.0 mg/kg/injection, schedule: Q04DX003 (ip), vehicle: gum acacia 96 % of control | dose: 200.0 mg/kg/injection, schedule: Q04DX003 (ip), vehicle: gum acacia 93 % of control | dose: 400.0 mg/kg/injection, schedule: Q04DX003 (ip), vehicle: gum acacia 95 % of control

CC(C)(C)C(=O)CS(=O)(=O)C(Br)C(=O)C(C)(C)C (stereo not drawn)
inactive: [6] 100 % of control

CC(=O)Oc1ccc(CCN=C(c2ccccc2)c2ccccc2)cc1OC(C)=O
inactive: [13] 107 % of control | [14] 104 % of control | dose: 400.0 mg/kg/injection, schedule: Q01DX001 (ip), vehicle: saline 100 % of control

CC(=O)CCCN1C(=O)c2ccccc2C1=O
inactive: dose: 100.0 mg/kg/injection, schedule: Q01DX009 (ip), vehicle: saline with Tween-80 106 % of control | [15] 101 % of control | dose: 200.0 mg/kg/injection, schedule: Q01DX009 (ip), vehicle: saline with Tween-80 96 % of control | [16] 91 % of control | dose: 400.0 mg/kg/injection, schedule: Q01DX009 (ip), vehicle: saline with Tween-80 93 % of control | [17] 102 % of control

C=CCc1ccc(OC(=O)NC(C)C)c(OC)c1
inactive: [18] 89 % of control | [21] 97 % of control and 88 % of control | [24] 98 % of control and 100 % of control | [6] 93 % of control | [19] 101 % of control | [22] 111 % of control and 91 % of control | [25] 98 % of control and 112 % of control | [7] 97 % of control | [20] 100 % of control | [23] 88 % of control | [26] 112 % of control and 119 % of control | [8] 101 % of control

N/C(=N\[N+](=O)[O-])Nc1ccccn1
inactive: [24] 95 % of control | [25] 98 % of control | [26] 109 % of control

OC1CC2CCC(C2)C1(O)c1ccccc1 (stereo not drawn)
inactive: [6] 93 % of control | [7] 117 % of control | [8] 93 % of control

CC(=O)C1CCC=C2C1CC1CC2C1(C)C (stereo not drawn)
inactive: [21] 106 % of control | [6] 92 % of control | [22] 100 % of control | [7] 87 % of control | [23] 101 % of control | [8] 90 % of control

CCN(CC)C(=O)c1c(Cl)n(C)c2ccccc12
inactive: dose: 12.5 mg/kg/injection, schedule: Q04DX003 (ip), vehicle: Klucel (hydroxypropylcellulose) (HPC) 95 % of control | dose: 25.0 mg/kg/injection, schedule: Q04DX003 (ip), vehicle: Klucel (hydroxypropylcellulose) (HPC) 104 % of control | dose: 50.0 mg/kg/injection, schedule: Q04DX003 (ip), vehicle: Klucel (hydroxypropylcellulose) (HPC) 104 % of control

Cc1cc(Cl)cc(C)c1O
inactive: dose: 75.0 mg/kg/injection, schedule: Q04DX003 (ip), vehicle: saline 114 % of control | dose: 150.0 mg/kg/injection, schedule: Q04DX003 (ip), vehicle: saline 100 % of control | dose: 300.0 mg/kg/injection, schedule: Q04DX003 (ip), vehicle: saline 112 % of control

CCCC1CCCC(=O)N1 (stereo not drawn)
inactive: [9] 98 % of control | [10] 98 % of control
